Measured values from ChEMBL document CHEMBL4043296 (J Med Chem, 2018).

Tests used:
[1] = Fraction unbound in mouse plasma at 0.5 uM by equilibrium dialysis method; type: ADME, cell-free
[2] = biological target: T1, Muscarinic acetylcholine receptor M5 (Homo sapiens, UniProt P08912); assay: Displacement of [3H]NMS from human muscarinic M5 receptor expressed in CHO cell membranes after 2 hrs by liquid scintillation counting method
T1 sequence (P08912 whole entry): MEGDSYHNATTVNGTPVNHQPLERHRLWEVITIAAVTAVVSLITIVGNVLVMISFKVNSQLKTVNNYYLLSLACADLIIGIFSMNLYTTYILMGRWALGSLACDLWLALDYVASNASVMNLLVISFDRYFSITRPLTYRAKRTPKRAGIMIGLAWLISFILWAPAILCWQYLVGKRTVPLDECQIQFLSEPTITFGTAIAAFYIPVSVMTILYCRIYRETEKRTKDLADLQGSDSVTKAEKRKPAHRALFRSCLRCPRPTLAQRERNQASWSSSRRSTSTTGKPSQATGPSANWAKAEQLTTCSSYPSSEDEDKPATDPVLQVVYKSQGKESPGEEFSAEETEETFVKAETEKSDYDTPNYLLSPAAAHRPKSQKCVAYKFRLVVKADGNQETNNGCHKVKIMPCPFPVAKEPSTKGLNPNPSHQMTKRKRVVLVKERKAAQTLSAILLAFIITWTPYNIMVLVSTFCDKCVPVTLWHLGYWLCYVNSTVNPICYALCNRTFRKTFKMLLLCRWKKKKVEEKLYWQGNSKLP

[3] = biological target: T2, Alpha-1B adrenergic receptor (Homo sapiens, UniProt P35368); assay: Displacement of [3H]prazosin from human recombinant alpha-1B adrenergic receptor expressed in CHO cell membranes after 30 mins by liquid scintillation counting method
T2 sequence (P35368 whole entry): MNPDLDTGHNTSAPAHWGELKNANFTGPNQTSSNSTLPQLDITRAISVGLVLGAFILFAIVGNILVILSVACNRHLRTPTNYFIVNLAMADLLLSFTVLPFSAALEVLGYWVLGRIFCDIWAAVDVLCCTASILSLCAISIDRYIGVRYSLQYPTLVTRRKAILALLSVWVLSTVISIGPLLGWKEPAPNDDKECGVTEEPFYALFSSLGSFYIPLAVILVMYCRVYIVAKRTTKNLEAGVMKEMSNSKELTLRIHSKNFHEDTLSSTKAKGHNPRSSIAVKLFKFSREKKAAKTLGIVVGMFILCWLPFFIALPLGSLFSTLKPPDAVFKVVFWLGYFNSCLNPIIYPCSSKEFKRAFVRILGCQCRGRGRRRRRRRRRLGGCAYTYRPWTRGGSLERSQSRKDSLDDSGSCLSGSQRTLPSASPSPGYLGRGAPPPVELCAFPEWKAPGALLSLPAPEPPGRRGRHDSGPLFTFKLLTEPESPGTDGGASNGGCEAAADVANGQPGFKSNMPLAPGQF

[4] = biological target: T3, Alpha-1D adrenergic receptor (Homo sapiens, UniProt P25100); assay: Displacement of [3H]prazosin from human recombinant alpha-1D adrenergic receptor expressed in CHO cell membranes after 30 mins by liquid scintillation counting method
T3 sequence (P25100 whole entry): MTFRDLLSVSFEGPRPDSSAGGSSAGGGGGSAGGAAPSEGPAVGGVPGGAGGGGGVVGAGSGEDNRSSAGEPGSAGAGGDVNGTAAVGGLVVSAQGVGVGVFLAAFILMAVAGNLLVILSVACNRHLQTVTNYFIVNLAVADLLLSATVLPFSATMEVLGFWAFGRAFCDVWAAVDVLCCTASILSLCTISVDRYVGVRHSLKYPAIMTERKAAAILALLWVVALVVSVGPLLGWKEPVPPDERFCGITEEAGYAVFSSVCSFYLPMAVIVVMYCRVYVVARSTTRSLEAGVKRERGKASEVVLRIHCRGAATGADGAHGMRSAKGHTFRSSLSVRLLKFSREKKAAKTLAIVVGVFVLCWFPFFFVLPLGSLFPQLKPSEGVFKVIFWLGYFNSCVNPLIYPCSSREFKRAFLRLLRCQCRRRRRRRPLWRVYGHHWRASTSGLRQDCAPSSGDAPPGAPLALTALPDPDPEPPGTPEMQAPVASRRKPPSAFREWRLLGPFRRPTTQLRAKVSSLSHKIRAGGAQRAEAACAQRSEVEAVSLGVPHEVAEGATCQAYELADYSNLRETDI

[5] = biological target: Beta-1 adrenergic receptor (Homo sapiens, UniProt P08588); assay: Displacement of [3H]CGP12177 from human recombinant beta1 adrenergic receptor expressed in HEK293 cell membranes after 90 mins by beta counting method
Chain of Beta-1 adrenergic receptor (P08588 whole entry, the tested form may be a part): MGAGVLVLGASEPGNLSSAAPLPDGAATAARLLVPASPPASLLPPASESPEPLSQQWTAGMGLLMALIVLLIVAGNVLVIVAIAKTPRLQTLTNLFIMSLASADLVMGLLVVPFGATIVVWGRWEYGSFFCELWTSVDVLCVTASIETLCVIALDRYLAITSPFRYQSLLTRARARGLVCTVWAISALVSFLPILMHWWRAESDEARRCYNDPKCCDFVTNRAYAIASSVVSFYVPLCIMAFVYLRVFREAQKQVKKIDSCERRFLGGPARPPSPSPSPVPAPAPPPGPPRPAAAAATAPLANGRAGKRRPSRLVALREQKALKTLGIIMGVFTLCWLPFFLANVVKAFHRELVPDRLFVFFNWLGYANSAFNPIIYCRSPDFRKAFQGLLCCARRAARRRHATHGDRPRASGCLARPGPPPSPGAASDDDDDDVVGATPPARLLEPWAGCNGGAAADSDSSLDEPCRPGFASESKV

[6] = biological target: T4, Muscarinic acetylcholine receptor M4 (Homo sapiens) (UniProt P08173); assay: Agonist activity at human SP/Myc epitope-tagged muscarinic M4 receptor expressed in HEK293T cells assessed as RLuc8-fused Galphaq activation after 2 mins by BRET assay relative to carbachol; type: cell-based; settings: HEK-293T
T4 sequence (whole entry): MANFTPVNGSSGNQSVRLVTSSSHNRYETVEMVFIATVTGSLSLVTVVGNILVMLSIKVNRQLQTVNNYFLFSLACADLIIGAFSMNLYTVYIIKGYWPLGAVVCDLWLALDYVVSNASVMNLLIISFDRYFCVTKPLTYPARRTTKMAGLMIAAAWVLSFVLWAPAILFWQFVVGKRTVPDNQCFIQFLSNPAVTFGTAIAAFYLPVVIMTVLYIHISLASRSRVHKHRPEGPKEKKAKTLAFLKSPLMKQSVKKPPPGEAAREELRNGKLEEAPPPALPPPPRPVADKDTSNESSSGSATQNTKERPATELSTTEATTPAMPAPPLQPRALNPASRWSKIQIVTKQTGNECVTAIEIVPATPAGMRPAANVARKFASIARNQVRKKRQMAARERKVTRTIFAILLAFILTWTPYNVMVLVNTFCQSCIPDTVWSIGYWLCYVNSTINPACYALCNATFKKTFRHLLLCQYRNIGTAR

[7] = Fraction unbound in mouse brain at 5 uM by equilibrium dialysis method; type: ADME, tissue-based
[8] = Half life in mouse liver microsomes at 0.5 uM preincubated for 30 mins followed by NADPH addition measured over 30 mins by HPLC-MS/MS method; type: ADME, microsome
[9] = Tmax in CD1 mouse plasma at 3 mg/kg, sc by UPLC-MS analysis; type: ADME, organism-based

SMILES | fraction unbound at 0.5 µM [1] | Ki [2] | Ki [3] | Ki [4] | Ki [5] | Emax [6] | fraction unbound at 5 µM [7] | half-life at 0.5 µM [8] | Tmax [9]
O=C1CCc2ccccc2N1CCCN1CCN(c2ccccc2)CC1 | 0.097 | 27500 nM | 74.1 nM | 91.2 nM | 32400 nM | 17% | 0.086 | 8.71 min | 15 min
O=C1CCc2ccccc2N1CCCN1CCC(Cc2ccccc2)CC1 | 0.1 | 3720 nM | 224 nM | 302 nM | 10200 nM | 24% | 0.051 | 3.5 min | 
